Measurements: patent publication US20190247376A1, “NICOTINIC ACETYLCHOLINE RECEPTOR AGONIST ATTENUATES ILC2-DEPENDENT AIRWAY HYPERREACTIVITY” (University of Southern California, priority 2016, published 2019)

Experiments:
lung ILC2s [1] = experiment: In vitro stimulation of murine lung ILC2s, IL-5 and IL-13 by ELISA, viability by 7-AAD; assay type: cell-based, mouse
Experimental: FIGS. 2A-2C: α7nAChR agonist suppresses IL-5 and IL-13 production from ILC2s in vitro. BALB/cByJ mice were intranasally challenged with recombinant mouse IL-33 on days 1-3. On day 4 lung ILC2s were isolated and re-stimulated with rIL-33, rIL-2 and rIL-7 with or without α7nAChR agonist (2.5, 10 and 50 μg mL^−1) for 24 hours (FIG. 2A) or 48 hours (FIG. 2B). The levels of IL-5 and IL-13 were measured by ELISA. The viability of cultured ILC2s were assessed by staining with 7-AAD. (FIG. 2C) BALB/cByJ mice were intranasally challenged with recombinant mouse IL-33 on days 1-3, with or without α7nAChR agonist administration. On day 4 lung ILC2s were isolated and the number of IL-5^+ and IL-13^+ cells per 40×10^4 ILC2s were quantified. Values are expressed as the mean±SEM of five experiments (n=5; Student's t test *, p<0.05; **p<0.01).
FIG. 10: α7nAChR agonist suppresses cytokine production in ILC2s. Lung ILC2s were sorted from naïve BALB/cByJ mice and cultured with rm-IL-25 (10 ng mL−1) in the presence or absence of α7nAChR (10 μg mL−1) agonist for 24 hours. The levels of IL-5 and IL-13 were measured by ELISA. Data are representative of at least two independent experiments and are presented as means±SEM (n=4; Student's t test *, p<0.05).
Nicotine is known as a major constituent of cigarette smoke, which causes impairment of lung function and exacerbation of asthma. […] To address this question quantitatively, pulmonary ILC2s were isolated and cultured with increasing doses (2.5, 10 and 50 μg mL^−1) of α7nAChR agonist in the presence of rm-IL-33, rm-IL-2 and rm-IL-7. […] To verify that the actions of the agonist were not due to a reduction in the number of ILC2s, Applicants administered IL-33 to mice in vivo with or without agonist treatment, and then quantified the number of IL-5^+ and IL-13^+ ILC2s within a determined number of ILC2s (FIG. 2C). […]
Murine ILC2s were isolated from BALB/cByJ mice to >95% purity using the FACSARIA III cell sorter. […] Levels of cytokines were measured by ELISA (eBioscience), according to the manufacturer's instructions.

lung ILC2s [2] = experiment: Gene expression analysis of ILC2s with NanoString nCounter technology; assay type: cell-based, mouse; details: ILC2s from rm-IL-33 challenged mice with or without agonist
Excerpt: FIGS. 5A-5F: Cholinergic signal attenuates ILC2 proliferation and GATA3 expression. (FIG. 5A) Mean fluorescence intensity of Ki67 and percentage of Ki67+ cells in isolated lung ILC2s, stimulated with IL-33 in the absence and presence of α7nAChR. (FIG. 5B) Mean fluorescence intensity of GATA3 in isolated lung ILC2s, stimulated with IL-33 in the absence and presence of α7nAChR. One representative experiment of two is shown (n=5; Student's t test *, p<0.05; **, p<0.01; ***p<0.001). […] FACS-purified ILC2s from WT mice challenged with rm-IL-33 with or without α7nAChR agonist as described in FIG. 3A were quantified by NanoString nCounter technology. Data range from −1 to +1 for the most reduced and most increased gene expression, respectively. (FIG. 5D) Expression of NF-κB p65 in isolated lung ILC2s from mice challenged with IL-33 with (dotted line) or without (thick line) α7nAChR agonist. The level of isotype-matched stain control is shown as a gray-filled histogram. (FIG. 5E) Expression of phosphorylated IKKα/β (Ser176/180) in isolated lung ILC2s stimulated with IL-33, with (dotted line) or without (thick line) α7nAChR agonist for 24 hours. The level of isotype-matched stain control is shown as a gray-filled histogram. (FIG. 5F) Mean fluorescence intensity of phosphorylated IKKα/β with or without α7nAChR agonist.
Next, to investigate the molecular mechanism of α7nAChR agonist-mediated anti-inflammatory effects, Applicants analyzed the gene expression profile of ILC2s with or without α7nAChR agonist treatment by NanoString technology as described in the methods. […] Applicants further confirmed by flow cytometry that α7nAChR agonist reduced NF-κB p65 expression in ILC2s (FIG. 5D). To better establish the underlying mechanisms, Applicants explored the signaling pathway upstream of NF-κB by measuring the activated form of IKKα/β, which is phosphorylated on serine residues 176 and 180. Consistent with our previous results shown in FIG. 5D, α7nAChR agonist reduced phosphorylated IKKα/β expression in ILC2s (FIGS. 5E-5F). NF-κB and STAT-6 are both critical for GATA-3 transcription. The inhibition of GATA-3 expression results in a down-regulation of IL-5, IL-9 and IL-13 secretion from ILC2s.
The difference in the abundance of scripts between ILC2s purified from rm-IL33 administered mice with or without α7nAChR agonist were analyzed with NanoString nCounter technology. Heat plots were generated with R statistical software.

## COc1ccc(/C=C2\CCCN=C2c2cccnc2)c(OC)c1 [GTS-21, 3-[(3E)-3-[(2,4-dimethoxyphenyl)methylidene]-5,6-dihydro-4H-pyridin-2-yl]pyridine]
Lung ILC2s [1]; agonist 2.5, 10 and 50 μg mL−1, 24 or 48 hours
  viability of cultured ILC2s (7-AAD): independent of cell viability except at the highest tested dose
Lung ILC2s [1]; rm-IL-25 10 ng mL−1, agonist 10 μg mL−1, 24 hours
  IL-25-induced cytokine secretion (IL-5 and IL-13): susceptible to suppression
Lung ILC2s [1]; rm-IL-33, rm-IL-2, rm-IL-7, agonist 2.5, 10 and 50 μg mL−1, 24 or 48 hours
  IL-5 and IL-13 production from ILC2s (ELISA): dose-dependent anti-inflammatory effects
Lung ILC2s [2]
  RelA expression: unaffected
  expression at the mRNA level of NF-κB1: decrease
  expression of GATA-3, STAT-6, NF-κB, IL-5, IL-9 and IL-13 (IL-33/IL-25 signaling pathway genes): inhibited
  expression of STAT-5a, STAT-5b, and IL-2 receptors (IL-2/IL-7 signaling panel): relatively unaffected
  factors associated with apoptosis (Casp3, Casp8, Bcl-2): did not activate
